Reference: PMC7806715, “Discovery of small molecules targeting the tandem tudor domain of the epigenetic factor UHRF1 using fragment-based ligand discovery” (Scientific Reports, 2021)

Tests used:
[1] = target: T1, His6-UHRF1-full length vs. H3K9me3 peptide (Homo sapiens, UniProt Q96T88); test: TR-FRET assay: His6-UHRF1-FL binding to H3K9me3 peptide; type: biochemical; details: dose-response, side by side with His6-TTD
T1 construct: made in house; host or cells: Rosetta (DE3) E. coli, pMCSG7
T1 sequence (Q96T88 1-793): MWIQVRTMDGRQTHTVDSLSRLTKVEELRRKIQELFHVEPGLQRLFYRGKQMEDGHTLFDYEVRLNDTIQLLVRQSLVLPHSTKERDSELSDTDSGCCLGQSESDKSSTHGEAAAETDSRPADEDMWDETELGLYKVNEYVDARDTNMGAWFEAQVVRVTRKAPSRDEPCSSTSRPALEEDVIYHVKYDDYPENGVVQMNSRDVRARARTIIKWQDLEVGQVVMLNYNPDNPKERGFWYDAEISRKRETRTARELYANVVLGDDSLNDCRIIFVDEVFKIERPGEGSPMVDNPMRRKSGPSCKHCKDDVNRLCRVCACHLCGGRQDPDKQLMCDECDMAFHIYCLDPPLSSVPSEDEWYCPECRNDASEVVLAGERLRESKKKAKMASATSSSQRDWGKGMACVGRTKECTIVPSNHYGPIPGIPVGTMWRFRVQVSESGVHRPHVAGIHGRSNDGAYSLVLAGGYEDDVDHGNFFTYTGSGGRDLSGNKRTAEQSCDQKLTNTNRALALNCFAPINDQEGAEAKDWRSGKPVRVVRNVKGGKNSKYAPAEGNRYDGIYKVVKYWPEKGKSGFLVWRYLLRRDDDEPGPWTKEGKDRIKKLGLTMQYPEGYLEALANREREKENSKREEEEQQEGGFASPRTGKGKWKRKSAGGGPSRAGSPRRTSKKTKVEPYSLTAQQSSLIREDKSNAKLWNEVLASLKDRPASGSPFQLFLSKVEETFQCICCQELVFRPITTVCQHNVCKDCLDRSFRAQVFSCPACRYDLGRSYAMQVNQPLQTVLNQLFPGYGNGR
Protocol: The fragment screen was carried out on low volume 384-well white plates (Corning 4512) and the assay was performed at room temperature. The TR-FRET reagent mix contained 200 nM of biotinylated-H3K9me3 peptide (Anaspec), 250 nM of His6-TTD, 25 nM of streptavidin-d2 (CisBio), and 1 × anti-6His-Tb cryptate Gold (Cisbio) in TR-FRET buffer (50 mM sodium phosphate, pH 7, 150 mM NaCl, 1 mM DTT, and 0.1% Triton-X-100). During the screen, 5 μl of TR-FRET reagent mix was dispensed into each well, and 100 nl of chemical fragments stock (10 mM in DMSO) was added to each well by pintool using Tecan Freedom Evo liquid handler to make the final compound concentration 196 μM. After 1 h of incubation, the fluorescent signals at 665 nm and 620 nm of each plate were measured by the Tecan Infinite M1000 plate reader (excitation 340 nm, 60 μs lag time, and 500 μs integration time) and the TR-FRET signal was calculated by the ratio of 665 nm/620 nm fluorescent signal. For the fragment screen, on seven of the library plates there were 32-wells of DMSO control, while there were 8-wells of DMSO control in the last plate. The TR-FRET assays for the interactions between His6-TTD-PHD and His6-UHRF1-FL binding to biotinylated-H3K9me3 (1-20) peptide were similar to the assay for His6-TTD. […]

[2] = target: T2, C-FLAG-UHRF1-FL (Homo sapiens, UniProt Q96T88); test: Intrinsic tryptophan fluorescence of C-FLAG-UHRF1-FL; type: binding; details: 5 µM protein
T2 construct: His6-UHRF1-full length (His6-UHRF1-FL); His (N); made in house; host or cells: Rosetta (DE3) E. coli, pMCSG7
T2 sequence (Q96T88 1-793): T1 sequence (Q96T88 1-793)
Protocol: The untagged TTD was diluted to 30 µM by buffer (50 mM sodium phosphate, pH 7.5, 150 mM NaCl) with or without 60 µM of H3K9me3 peptide (1–20) (Anaspec). 10 µL of diluted TTD was added into 384-well flat bottom black plate (Greiner, Cat# 781086). […] The final concentration of TTD was 15 µM and the H3K9me3 peptide (if included) was 30 µM. The experiment was performed at room temperature. […] After compound addition, the intrinsic tryptophan fluorescence was analyzed by the Tecan Infinite M1000 plate reader (excitation 280 nm, emission 334 nm). […] Tryptophan fluorescence monitors 2 , 4 - lutidine binding to His 6 - TTD, His 6 - TTD - PHD, and C - FLAG - UHRF 1 - FL . 2 , 4 - Lutidine dose - dependently quenched the tryptophan fluorescence of TTD (purple circle), while only started to show quenching effect against His 6 - TTD - PHD at mM concentration (blue diamond) . 2 , 4 - Lutidine had no effect on the fluorescence of C - FLAG - UHRF 1 - FL and the control USP 7 - UBL 1 / 2 protein . n= 3 for each data point . (Note : the standard deviation error bars are included, but the error values are often extremely small in this assay) . […]

Cc1ccnc(C)c1 [2,4-lutidine]
inhibition of His6-UHRF1-FL interaction with H3K9me3 peptide (in words) [1]: only weakly inhibits | quenching of C-FLAG-UHRF1 tryptophan fluorescence (in words) [2]: did not quench
